The values below come from publication PMC1190152, “Archazolid and apicularen: Novel specific V-ATPase inhibitors” (BMC Biochemistry, 2005).

Test [1] deals with T1, F-ATPase (Mus musculus, UniProt P56480).
T1 construct: we prepared mitochondria rich crude membranes from mouse heart; from tissue; host or cells: mouse heart, crude membrane extract
Description: Inhibition of F-ATPase activity in crude membranes from mouse heart. Type of test: biochemical. As to conditions: mouse heart crude membranes. As to the method:
(§1) The V-ATPase holoenzyme was purified as published elsewhere. Preparation of highly purified membranes containing Na^+/K^+-ATPase from pig kidney followed the protocol of Jørgensen with the three main steps of differential centrifugation, incubation with SDS in the presence of ATP and sucrose density gradient centrifugation in a fixed angle rotor, and led to a specific enzyme activity which was in the same range as that reported by the authors. The resulting sample was stored frozen at -20°C. To prepare crude membrane extracts, the hearts of three mice were washed three times with an ice-cold buffer of pH 8.1 consisting of 0.25 M sucrose, 5 mM Tris-HCl, 5 mM EDTA, and 10 mM Pefabloc SC (Biomol), homogenized in 5 ml of this buffer and centrifuged at 4°C for 25 min at 233,000 × gmax in a fixed angle rotor. The resulting pellet was resuspended in 5 ml of a buffer of pH 7.5, consisting of 5 mM Tris-MOPS (3-morpholinopropanesulfonic acid), 10 mM NaCl, 10 mM Pefabloc SC, 9.6 mM 2-mercaptoethanol, 0.53 mM EGTA and 0.1 % Triton X-100. After an aliquot for protein determination had been taken, 10% bovine serum albumin (final concentration) was added to the suspension which was then stored on ice until the activity assays were run. Beef heart mitochondria were isolated by differential centrifugation, following the protocol of Smith by using a blender to homogenize the heart mince. The initial homogenization buffer consisted of 250 mM saccharose, 10 mM KH2PO4, 10 mM Tris, 2 mM EGTA, 2 mM MgCl2, pH 7.4, and further isolation procedures were carried out in the same medium without EGTA [24]. Submitochondrial particles were obtained by ultrasonic treatment of the mitochondria.
(§2) Standard V-ATPase assays with a final volume of 160 μl and a pH of 8.1 consisted of 3–4 μg of protein, 50 mM Tris-MOPS, 3 mM 2-mercaptoethanol, 1 mM MgCl2, 20 mM KCl, 0.003% C12E10, 20 mM NaCl, and 3 mM Tris-HCl. After 5 min of pre-incubation at 30°C with or without inhibitors, 1 mM Tris-ATP was added and after incubation for 2 min the reaction was stopped by placing the tube in liquid nitrogen. Assays using Na^+/K^+-ATPase were performed in 160 μl at pH 7.5 and contained 0.5 μg of protein, 50 mM Tris-MOPS, 5 mM imidazole, 0.2 mM EDTA, 4 mM MgCl2, 20 mM KCl and 100 mM NaCl. After 5 min of pre-incubation at 37°C with or without inhibitors, 3 mM Tris-ATP was added and after 1 min of incubation the reaction was stopped by placing the tube in liquid nitrogen. […] After 5 min of pre-incubation at 30°C with or without inhibitors, 1 mM Tris-ATP was added and after an incubation time of 10 min the reaction was stopped by placing the tubes in liquid nitrogen. ATPase assays with submitochondrial particles from beef heart were performed in a final volume of 1 ml and a pH of 8.0. The samples contained 9–12 μg protein, 50 mM Tris, 50 mM KCl and 2.5 mM MgCl2. After 5 min of preincubation with or without inhibitors, 5 mM ATP was added, and after an additional incubation time of 15 min the reaction was stopped by the addition of 0.4 ml of 20 % TCA.
(§3) Inorganic phosphate produced in the assays of V-ATPase, Na^+/K^+-ATPase and mouse heart F-ATPase was measured according the protocol of Wieczorek et al., while the determination of inorganic phosphate produced in the assays of beef heart F-ATPase followed the method of Fiske and Subarrow using ascorbic acid as reducing agent.

The target in test [2] is T2, F-ATPase (Bos taurus, UniProt P00829).
T2 construct: Submitochondrial particles were obtained by ultrasonic treatment of the mitochondria; from tissue; host or cells: beef heart mitochondria, submitochondrial particles
Description: Inhibition of F-ATPase activity in submitochondrial particles from beef heart. Type of test: biochemical. As to conditions: beef heart submitochondrial particles. As to the method:
as §1, §2, §3

The subject of test [3] is fungi. As to conditions: ref [11],[15],[17]; cited from earlier work.
The target in test [4] is T3, V-ATPase holoenzyme from the midgut of the tobacco hornworm (Manduca sexta, UniProt P31403).
T3 construct: purified V-ATPase holoenzyme from the midgut of the tobacco hornworm; from tissue; host or cells: midgut of fifth instar Manduca sexta larvae
More on the design: method as in PMID 12186879. As to conditions: ref [10], cited from earlier work.

In test [5] the target is T4, Vo subunit c (Manduca sexta, UniProt P31403).
T4 construct: from tissue; host or cells: midgut of Manduca sexta larvae (purified V-ATPase)
More on the design: method as in PMID 12186879. As to conditions: previous study; ref [10]; cited from earlier work.

Test [6] has as its system bacterial growth. The following applies: ref [11],[15],[17]; cited from earlier work.
The test system of test [7] is mammalian V-ATPases. The following applies: ref [11],[15],[17]; cited from earlier work.
In test [8] the test system is V-ATPases from fungi. The following applies: Saccharomyces cerevisiae or Neurospora crassa; ref [11],[15],[17]; cited from earlier work.
Test [9] has as its system L-929. Description: Growth inhibition of L-929 cells (MTT assay). The test is classed as cell-based. The following applies: Mus musculus, L929, 120 h; L-929, murine connective tissue; MTT after 5 days. As to the method:
(§4) Cell lines were obtained from the German Collection of Microorganisms and Cell Cultures (DSMZ). Cell lines 3Y1 and M1 (embryonal fibroblasts from 129/Ola × C57BL/6 mice, [30]) were a generous gift from Dr. S. Miyamoto, Fukoka, Japan, and Dr. P. F. Mühlradt, Braunschweig, Germany. All cell lines were cultivated under conditions recommended by the supplier. Growth inhibition was measured in microtiterplates. Aliquots of 120 μl of the suspended cells (50,000/ml) were given to 60 μl of a serial dilution of the inhibitor. After 5 days, growth was determined using the MTT assay.
(In general: Formazan colour is commonly taken as a measure of viable cells.)

The test system of test [10] is 3Y1. Nature of the test: Growth inhibition of 3Y1 cells (MTT assay). As to conditions: 120 h; 3Y1, rat embryogenic fibroblast cell line; MTT after 5 days; read-out: IC50 growth inhibition. The test is classed as cell-based, rat. How it is done: as §4
Test [11] deals with KB-V1. Description: Growth inhibition of multidrug-resistant KB-V1 cells (MTT assay), with or without verapamil. The test is classed as cell-based. As to conditions: 120 h; KB-V1, mdr human cervix carcinoma; without verapamil; MTT after 5 days. As to the method: The novel antibiotics archazolids and apicularens (Fig. 1) were checked for their impact on the cell growth of a variety of mammalian cell lines from different tissues (Tab. 1). […] Apicularen B was the only exception, with an average IC50 value two orders of magnitude higher. Growth inhibition of the multidrug-resistant cell line KB-V1 was also measured in the presence of verapamil. […] The data in Tab 1. show, that unlike the archazolids, the apicularens are poor substrates of Pgp. To visualize the impact of the antibiotics, PtK2 (potoroo kidney) cells were incubated with the inhibitors and stained for intact acidic lysosomes (Fig. 2). […] The same observation was made with KB-3-1 cells (data not shown). […] Unlike the cell lines listed in Tab. 1, the growth of PtK2 cells was not completely stopped. The same holds true for A-498 cells (human kidney carcinoma). Both cell lines grow epithelial-like. There was obviously a differential reaction of cell lines to V-ATPase inhibitors. For A-431 cells (human epidermoid carcinoma) a dependence on the expression of the EGF receptor was shown.
as §4

In test [12] the test system is M1. Description: Growth inhibition of M1 cells (MTT assay). The test is classed as cell-based, mouse. As to conditions: 120 h; M1, mouse embryogenic fibroblast cell line; MTT after 5 days; read-out: IC50 growth inhibition. How it is done: as §4
The target of test [13] is T3, V-ATPase holoenzyme from the midgut of the tobacco hornworm. Description: Inhibition of purified V-ATPase holoenzyme activity. The test is classed as biochemical. As to the method: as §1, §2, §3
Fifth instar larvae of M. sexta (Lepidoptera, Sphingidae), weighing 6–8 g, were reared under long day conditions (16 h of light) at 27°C using a synthetic diet modified according to Bell et al.

Test [14] relates to A-594. Further details: method as in PMID 10048565. As to conditions: A-594, human lung carcinoma; ref [15]; read-out: IC50 growth inhibition; cited from earlier work.

Like-named read-outs stand apart in the source and are kept apart here.

T3 sequence (P31403 whole entry): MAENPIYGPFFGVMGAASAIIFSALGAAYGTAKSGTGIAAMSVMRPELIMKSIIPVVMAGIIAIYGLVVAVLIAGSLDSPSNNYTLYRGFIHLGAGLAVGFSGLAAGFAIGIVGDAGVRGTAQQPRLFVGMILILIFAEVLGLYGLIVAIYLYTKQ
T4 sequence (P31403 whole entry): as above

Consider archazolid, for which the “ATPase activity reduced to (remaining activity)” value in test [1] (inhibitor 1 μM) and in test [2] (inhibitor 1 μM) was “approximately 80%” each time. Besides, the “effect of increased inhibitor concentration on F-ATPase activity” value in [1] (inhibitor 10 μM) and in test [2] (inhibitor 10 μM) was “no substantial effect” in each case. For the same molecule, the activity against fungi result in test [3] is listed as “weak activity”.
On to salicylihalamide, for which, in test [4], the “IC50 per mg of protein, purified V-ATPase” value is given as “ca. 0.5 nmol per mg of protein”. The IC50 in test [4] (read-out: half-maximal inhibition concentration of purified V-ATPase) is approximately 10 nM. Further, in [5], the “labelling of / binding to subunit c” value is “does not bind to subunit c”. In [6], the “inhibition of bacterial growth” value is recorded as “failed to inhibit”. For the same molecule, the “inhibition of mammalian V-ATPases” value in test [7] is “effectively inhibited”. Further, the “inhibition of V-ATPases from fungi” value in test [8] is given as “not at all”.
As for `CC/C=C\C=C/C(=O)N/C=C/CC1CC2CC(O[C@@H]3O[C@H](CO)[C@@H](O)[C@H](O)[C@H]3NC(C)=O)CC(Cc3cccc(O)c3C(=O)O1)O2` (stereo partly shown) [apicularen B], the IC50 in test [9] was 620 nM; in test [10], 310 nM; in test [11], 1600 nM; in test [12] it was 190 nM; in test [13] (purified holoenzyme, 3–4 μg protein, pH 8.1, 30°C, read-out: half-maximal inhibition concentration of purified V-ATPase), approximately 60 nM; in test [14], 310 nM. Also, the “IC50 per mg of protein, purified V-ATPase” value in test [13] (equivalent of the half-maximal concentration) is ~2.4 nmol per mg of protein. Besides, in test [6], the “inhibition of bacterial growth” value is recorded as “failed to inhibit”.
